The source of these data is patent US20230349008A1, “PAPER-BASED SAMPLE TESTING DEVICES AND METHODS THEREOF” (CORNELL UNIVERSITY, priority 2020, published 2023).

Each structure is given as a SMILES string.

Assay [1] relates to E. coli ATCC-25922. Description: On-chip paper-based antimicrobial susceptibility testing (AST), resazurin colorimetric readout. Type of assay: cell-based, Escherichia coli. Conditions: eight test zones: seven antibiotic concentrations plus no-antibiotic control; overnight 37° C.; 5×10^5 CFU/mL; hue threshold. From the text: (§1) To functionalize the chips for AST, antibiotics and the growth-sensitive dye resazurin were pre-dried on the chip to enable testing with a single sample addition step. Antibiotics used consisted of ampicillin, meropenem, gentamicin, and ciprofloxacin (all sourced from MilliporeSigma). The growth-sensitive dye resazurin (PrestoBlue, Thermo Fisher) is a redox indicator that is reduced by metabolically active cells into resorufin, leading to significant colorimetric and fluorescent changes which provide a visual indication of bacterial growth as disclosed in Guerin, et al., “Application of resazurin for estimating abundance of contaminant-degrading micro-organisms,” Lett. Appl. […] Using a spectrophotometer (V-1200, VWR), the OD625 nm absorbance corresponding to a 0.5 McFarland standard was verified to be in the range of 0.08-0.13 22. […] To quantitatively analyze color change in the test zones following incubation, test chips were imaged using a smartphone and analyzed in MATLAB (MathWorks). Images were analyzed in the hue, saturation, value (HSV) color-space which we determined to be less sensitive to lighting conditions compared to the red, blue, green (RGB) color-space. For each test zone, the average hue value in a 160-pixel diameter circular region was calculated and a threshold was used to differentiate between zones with reduced (growth) and unreduced (no growth) resazurin. […]

In assay [2] the test system is E. coli BAA-2452. The description is as above. Type of assay: cell-based, Escherichia coli. Conditions: eight test zones: seven antibiotic concentrations plus no-antibiotic control; overnight 37° C.; 5×10^5 CFU/mL; hue threshold.
Text: as §1

The subject of assay [3] is E. coli BAA-2452. Conditions: vendor MIC interpretation; cited from earlier work.
For assay [4], the system named is E. coli ATCC-25922. The settings on record: vendor MIC interpretation; cited from earlier work.

Turning to `CC1(C)S[C@@H]2[C@H](NC(=O)[C@H](N)c3ccccc3)C(=O)N2[C@H]1C(=O)O` [ampicillin], the “number of positive test zones (reduced resazurin, uninhibited growth)” value in assay [1] is listed as “no-antibiotic control positive only”; in assay [2], “six”. Also, the “susceptibility category via off-chip AST” value is “resistant” in assay [3] and “susceptible” in assay [4].
